Values quoted from earlier work as cited in patent US7858602B2, “Therapeutic and prophylactic uses of cell specific carbonic anhydrase enzymes in treating aging disorders due to oxidative stress and as growth factors of stem cells” (priority 2000, dated 2010).

Experiments:
[1] = system: human synovial cells and synovial tissue cultures
[2] = system: carbonic anhydrase VI (CA-VI); settings: orally administered, patients with CA-VI deficiency
CA = settings: in vitro and in vivo
[3] = system: sympathetic nerve terminals
[4] = system: synovial connective tissue fibroblast
muscle fibroblast = settings: exposure to CA III

For `CNCCC(Oc1ccc(C(F)(F)F)cc1)c1ccccc1` (stereo not drawn) [Fluoxetine], the “Prostaglandin PGE2 production” value [1] is listed as “inhibit”, the hyaluronic acid production [1] is listed as “inhibit” and the nitric oxide production [1] is listed as “inhibit”.

In the case of `[Zn]` [Zinc], the “stimulation of synthesis/secretion of CA-VI, treatment result” value [2] is listed as “successful”.

For `CN(C)CCC=C1c2ccccc2CCc2ccccc21` [aminitriptylline], the “Prostaglandin PGE2 production” value [1] is given as “inhibit”, the hyaluronic acid production [1] is given as “inhibit” and the nitric oxide production [1] is given as “inhibit”.

In the case of `CCCCC[C@H](O)/C=C/[C@H]1[C@H](O)CC(=O)[C@@H]1CCCCCCC(=O)O` [prostaglandin E1], the “effect on CA” value (CA) is given as “inhibit”.

In the case of `CCCCC[C@H](O)/C=C/[C@H]1[C@H](O)CC(=O)[C@@H]1C/C=C\CCCC(=O)O` [prostaglandin E2, Prostaglandin E2], the “effect on CA” value (CA) is listed as “inhibit”, the gastric acid output (gastric acid output) is listed as “inhibit” and the “egress of norepinephrine from sympathetic nerve terminals” value [3] is listed as “inhibits”.

B1: CA III: Carbonic anhydrase III isolated from adult human skeletal muscle (protein, UniProt P07451 2-260, looked up)
Carbonic anhydrase 3: AKEWGYASHNGPDHWHELFPNAKGENQSPVELHTKDIRHDPSLQPWSVSYDGGSAKTILNNGKTCRVVFDDTYDRSMLRGGPLPGPYRLRQFHLHWGSSDDHGSEHTVDGVKYAAELHLVHWNPKYNTFKEALKQRDGIAVIGIFLKIGHENGEFQIFLDALDKIKTKGKEAPFTKFDPSCLFPACRDYWTYQGSFTTPPCEECIVWLLLKEPMTVSSDQMAKLRSLLSSAENEPPVPLVSNWRPPQPINNRVVRASFK
For B1, the “increase of synovial connective tissue fibroblast on exposure to CA III” value ([4]; cell culture) is listed as 2 to 12 fold, the hyaluronic acid synthesis ([4]; cell culture, exposure to CA III) is listed as “increased” and the “increase in synovial fibroblasts” value ([4]; exposure to CA III) is listed as 16-70%. For the same molecule, the “increase in muscle fibroblast” value (muscle fibroblast) was 20-45%.
